Laboratory results reported in US20180147206A1, “ACTIVATION OF NEURONAL STORE-OPERATED CALCIUM ENTRY PATHWAY FOR THE TREATMENT OF ALZHEIMER'S DISEASE” (The Board of Regents of the University of Texas System, priority 2015, published 2018).

Experiments:
spine nSOC channels = assay: GCamp5.3 Ca2+ imaging of synaptic nSOC in cultured hippocampal neurons; assay type: cell-based, mouse
hippocampal LTP = assay: Hippocampal slice field recordings (LTP); assay type: cell-based, mouse; settings: pre-treatment 300 nM for 2-3 hours
Experimental: FIGS. 6A-E. NSN21778 rescues mushroom spine and synaptic plasticity defects in AD hippocampal slices. (FIG. 6A) Confocal images of CA1 hippocampal slices from 6 month-old WTGFP, PS1KIGFP, and APPKIGFP mice. The images are shown for untreated slices (CON) and for slices treated with 300 nM NSN21778 (+NSN) for 3.5 hrs prior to fixation. Scale bar is 10 μm. (FIG. 6B) The fraction of mushroom spines in hippocampal CA1 neurons from 6 month-old WTGFP, PS1KIGFP, and APPKIGFP mice. The results are shown for untreated slices (CON) and for slices treated with 300 nM NSN21778 (+NSN). The average fraction of mushroom spines for each group of cells is shown as mean±SE (n≥31 neurons). ***, p <0.001. (FIG. 6C) Sample fEPSP traces are shown for 6 month-old WT and APPKI hippocampal slices prior to stimulation (basal), immediately after tetanus stimulation (induction) and 1 h after tetanus stimulation (after 1 hr). The results are shown for untreated slices and for slices pre-treated with 300 nM NSN21778 (+NSN) for 2-3 hours prior to tetanus stimulation. […]
Hippocampal slice field recordings. […] Field potentials (FPs) were recorded with extracellular recording electrodes (1 MΩ) filled with ACSF and placed in stratum radiatum of area CA1. […] The initial slope of the FPs was used to measure stability of synaptic responses and quantify the magnitude of LTP. […]

[1] = Stability in CD-1 mouse plasma; assay type: in vitro ADME; settings: commercial CD-1 mouse plasma; 2 μM
Experimental: FIGS. 12A-D. NSN21778 in vitro metabolism stability, in vivo plasma pharmacokinetics, and side effect on body weight (Related to FIGS. 7A-G). (FIG. 12A) The metabolic stability of NSN21778 was evaluated in vitro after incubation with commercial liver S9 fractions in the presence of phase I (NADPH regenerating system) cofactors. Compound levels were determined by LC-MS/MS. Additionally, the stability of NSN21778 in the presence of commercial CD-1 mouse plasma was measured. (FIG. 12B) NSN21778 was dosed i.p. at 10 mg/kg to female CD-1 mice. Levels of NSN21778 in plasma and brain were evaluated by LC-MS/MS. (FIG. 12C) WTGFP, PS1KIGFP and APPKIGFP mice body weight after i.p. administrated with control solution or 10 mg/kg NSN21778 for 10 weeks. Data presented as mean±SE (n=5 mice). (FIG. 12D) Body weight gained for various treatments.
In vitro metabolism assays. Female ICR/CD-1 mouse S9 fractions were purchased from Celsis/In Vitro Technologies (Baltimore, Md.). 25 μl (0.5 mg) of S9 protein was added to a 15 ml glass screw cap tube. […] The supernatant was analyzed by LC-MS/MS. Stability in commercial mouse CD-1 plasma (Bioreclamation, Westbury, N.Y.) was measured in a similar fashion. […] Reactions were quenched with methanol as above and supernatants evaluated by LC-MS/MS. Compound half-life was determined by the method of substrate depletion as described (McNaney et al., 2008).

## CC(=O)Nc1ccc(CCNc2ncnc3ccc(N)cc23)cc1 [NSN21778, N-{4-[2-(6-Amino-quinazolin-4-ylamino)-ethyl]-phenyl}-acetamide]
Spine nSOC channels; PS1KI and APPKI hippocampal neurons, 300 nM applied prior to Ca2+ re-addition
  spine nSOC: rescued spine nSOC
Spine nSOC channels; wild-type spines, 300 nM
  spine nSOC: no significant effect
Hippocampal LTP; APPKI slices, 6 month-old
  LTP defect: completely rescued
Hippocampal LTP; wild-type slices
  LTP: no significant effect
[1]
  stability in plasma: stable
